Experimental data: the supplement of paper PMC10307832

How the values were obtained:
Assay in all cases: relative viability (nuclei count vs DMSO), 5 days (fraction); higher = more cells survive
Sunitinib + Phenformin = compound: CCN(CC)CCNC(=O)c1c(C)[nH]c(/C=C2\C(=O)Nc3ccc(F)cc32)c1C [Sunitinib] + N=C(N)NC(=N)NCCc1ccccc1 [Phenformin] (partner 250 µM)
In short: (§1)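 One day after seeding in 1536-well plates, lung cancer cell lines were dosed by pin tool. Dosing was either single-drug or a fixed anchor-drug dose plus five library-drug doses (not always all listed) in √10 steps. After 5 days, nuclei were stained in one fix-and-stain step and counted on 4× images, and relative viability is the nuclei count of treated wells over that of vehicle wells, given as the median of duplicate plates.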

Sunitinib + Pictilisib = compound: CCN(CC)CCNC(=O)c1c(C)[nH]c(/C=C2\C(=O)Nc3ccc(F)cc32)c1C [Sunitinib] + CS(=O)(=O)N1CCN(Cc2cc3nc(-c4cccc5[nH]ncc45)nc(N4CCOCC4)c3s2)CC1 [Pictilisib] (partner 1 µM)
In short: as §1

Sunitinib + Alpelisib = compound: CCN(CC)CCNC(=O)c1c(C)[nH]c(/C=C2\C(=O)Nc3ccc(F)cc32)c1C [Sunitinib] + Cc1nc(NC(=O)N2CCC[C@H]2C(N)=O)sc1-c1ccnc(C(C)(C)C(F)(F)F)c1 [Alpelisib] (partner 2 µM)
In short: as §1

Sunitinib + AZD7762 = compound: CCN(CC)CCNC(=O)c1c(C)[nH]c(/C=C2\C(=O)Nc3ccc(F)cc32)c1C [Sunitinib] + NC(=O)Nc1cc(-c2cccc(F)c2)sc1C(=O)N[C@H]1CCCNC1 [AZD7762] (partner 0.2 µM)
In short: as §1

Cell Line | relative viability (Sunitinib + Phenformin; first compound 0.02 µM) | relative viability (Sunitinib + Phenformin; first compound 0.06325 µM) | relative viability (Sunitinib + Phenformin; first compound 0.2 µM) | relative viability (Sunitinib + Phenformin; first compound 0.6325 µM) | relative viability (Sunitinib + Phenformin; first compound 2 µM) | relative viability (Sunitinib + Pictilisib; first compound 0.02 µM) | relative viability (Sunitinib + Pictilisib; first compound 0.06325 µM) | relative viability (Sunitinib + Pictilisib; first compound 0.2 µM) | relative viability (Sunitinib + Pictilisib; first compound 0.6325 µM) | relative viability (Sunitinib + Pictilisib; first compound 2 µM) | relative viability (Sunitinib + Alpelisib; first compound 0.02 µM) | relative viability (Sunitinib + Alpelisib; first compound 0.06325 µM) | relative viability (Sunitinib + Alpelisib; first compound 0.2 µM) | relative viability (Sunitinib + Alpelisib; first compound 0.6325 µM) | relative viability (Sunitinib + Alpelisib; first compound 2 µM) | relative viability (Sunitinib + AZD7762; first compound 0.02 µM) | relative viability (Sunitinib + AZD7762; first compound 0.06325 µM) | relative viability (Sunitinib + AZD7762; first compound 0.2 µM) | relative viability (Sunitinib + AZD7762; first compound 0.6325 µM) | relative viability (Sunitinib + AZD7762; first compound 2 µM)
NCI-H1993 | 0.541 | 0.501 | 0.545 | 0.479 | 0.53 | 0.777 | 0.913 | 0.808 | 0.832 | 0.92 | 0.674 | 0.697 | 0.716 | 0.689 | 0.68 | 0.723 | 0.757 | 0.782 | 0.761 | 0.845
NCI-H2085 | 0.686 | 0.916 | 0.788 | 0.877 | 0.754 | 0.431 | 0.476 | 0.519 | 0.519 | 0.555 | 0.998 | – | 0.992 | 0.988 | 0.978 | 0.965 | 0.976 | 1.12 | 1.07 | 1
NCI-H2087 | 0.456 | 0.398 | 0.545 | 0.507 | 0.42 | 0.957 | 0.831 | 1.04 | 0.879 | 0.799 | 0.904 | 1.06 | 1.11 | 1.23 | 1.01 | 1.21 | 1.42 | 1.34 | 1.41 | 1.46
NCI-H2126 | 0.509 | 0.534 | 0.537 | 0.561 | 0.517 | 0.465 | 0.55 | 0.517 | 0.563 | 0.502 | 0.736 | 0.76 | 0.818 | 0.747 | 0.715 | 0.937 | 1.07 | 1.21 | 1.03 | 1.02
NCI-H2170 | 0.474 | 0.398 | 0.436 | 0.408 | 0.367 | 0.307 | 0.311 | 0.311 | 0.303 | 0.236 | 0.757 | 0.782 | 0.998 | 0.914 | 0.777 | 0.797 | 0.876 | 0.955 | 0.87 | 0.772
NCI-H2347 | 0.486 | 0.484 | 0.567 | 0.384 | 0.404 | 0.554 | 0.91 | 0.691 | 0.705 | 0.912 | 0.996 | 1.03 | 1.13 | 1.09 | 0.947 | 0.709 | 0.844 | 0.813 | 0.838 | 0.871
NCI-H2405 | 0.399 | 0.391 | 0.406 | 0.395 | 0.406 | 0.382 | 0.49 | 0.502 | 0.524 | 0.474 | 0.816 | 0.811 | 0.862 | 1.06 | 0.713 | 0.703 | 0.759 | 0.8 | 0.878 | 0.648
NCI-H3122 | 0.35 | 0.387 | 0.366 | 0.361 | 0.288 | 0.576 | 0.64 | 0.583 | 0.577 | 0.548 | – | 0.894 | 0.84 | 0.725 | 0.803 | 0.933 | 1.08 | 1.01 | 0.999 | 1.01
